According to patent US4339442A, “Gynosaponins, their use and a process for preparing the same” (priority 1980, dated 1982):

Legend:
Type in all cases: cell-based, male wister rats
fat cells [1] = assay: Decomposition of the fat in the fat cell by ACTH; details: 37° C., two hours; for inhibition at 20 µg/mL: Rattus norvegicus, 2 h, read-out: Rate of inhibition
Method: (§1) Fat tissues were separated from the epididymides of male wister rats weighing 150 to 180 g each, and fat cells were obtained therefrom in accordance with the Rodbell's method [M. Rodbell, J. Biol. Chem., 239, 375 (1964)]. A small section was prepared from 4 g of the fat tissue, and placed in 10 ml. of Krebs-Ringer bicarbonate buffer containing 0.4 g of albumin, 10 mg of collagenase and 5 mg of glucose, and having a pH value of 7.4. It was heated at 37° C. for 50 minutes, and subjected to centrifugal separation at 300 rpm, whereby a floating fat cell layer was separated. Added into the fat cell were 10 ml. of the aforesaid buffer (pH 7.4), and the solution was carefully stirred to wash the fat cell, followed by centrifugal separation at 300 rpm for 30 seconds. This procedure was repeated twice, whereby the fat cells were washed perfectly, and these fat cells were used for the tests.
The fat cells obtained by treating with collagenase were suspended in Krebs-Ringer bicarbonate buffer (KRB) having a pH value of 7.4. Placed into a test tube were 0.3 ml. of the solution thus obtained (containing 100 mg of fat cells), 0.1 ml. of ACTH solution containing 1 μg of ACTH, 0.1 ml. of each saponin solution containing 500 μg of saponin, and 0.3 ml. of a 5% alubumin solution in KRB, and having a pH value adjusted to 7.4. They were heated at 37° C. for two hours, and the amount of the resulting free fatty acid was determined in accordance with the Dole's method [V. P. Dole, J. Biol. Chem., 35, 150 (1958)].
Namely, 3 ml. of Dole's extract were separated into the reaction system, and 1 ml. of a thymol blue solution was added thereinto. Nitrogen was blown into the resulting solution, and the solution was titrated with a 0.008 N aqueous solution of sodium hydroxide, while it was being stirred. The amount of the resulting free fatty acid was determined in accordance with a calibration curve.
The rate of inhibition against fat decomposition was obtained in accordance with the following equation: [formula] wherein A stands for the amount of the free fatty acid formed by addition of ACTH along in the amount of 1 μg/ml.; and B stands for the amount of the free fatty acid formed by addition of ACTH and saponin in the amount of 1 μg/ml. and 20 μg/ml., respectively.

fat cells [2] = assay: Decomposition by adrenalin of the fat in the fat cells; details: adrenalin 1 μg/ml + saponin 20 μg/ml, 37° C., two hours; for inhibition at 20 µg/mL: Rattus norvegicus, 2 h, read-out: Rate of inhibition
Method: A small section was prepared from 4 g of the fat tissue, and placed in 10 ml. of Krebs-Ringer bicarbonate buffer containing 0.4 g of albumin, 10 mg of collagenase and 5 mg of glucose, and having a pH value of 7.4. […] Added into the fat cell were 10 ml. of the aforesaid buffer (pH 7.4), and the solution was carefully stirred to wash the fat cell, followed by centrifugal separation at 300 rpm for 30 seconds. This procedure was repeated twice, whereby the fat cells were washed perfectly, and these fat cells were used for the tests.
The fat cells obtained by treating with collagenase were suspended in Krebs-Ringer phosphate buffer (KRP) having a pH value of 7.4. Placed into a test tube were 0.3 ml. of the solution thus obtained, and containing 100 mg of fat cells, 0.1 ml. of an adrenalin solution containing 1 μg of adrenalin, 0.1 ml. of a saponin solution containing 20 μg of saponin, and 0.5 ml. of a 5% albumin solution in KRP, and having a pH value adjusted to 7.4. […] More specifically, 3 ml. of Dole's extract were placed in the reaction system, and after they were shaked for five minutes, 3 ml. of heptane were dispensed, and 1 ml. of a thymol blue solution was added thereinto. The resulting solution was titrated with a 0.008 N aqueous solution of sodium hydroxide, while it was being stirred with nitrogen, and the amount of the resulting free fatty acid was determined in accordance with a calibration curve.
The rate of inhibition was obtained in accordance with the equation shown at (1) above.

fat cells [3] = assay: Synthesis of fat from glucose in fat cells; details: 20 μg/ml; for Power for synthesis of neutral fat from glucose: 37° C., half an hour; for Rate of promotion / activation at 20 µg/mL: none = 100; for activation at 20 µg/mL: Rattus norvegicus, 0.5 h, read-out: Rate of promotion
Method: as §1
^14 C-glucose having its carbon atoms marked with radioactivity was reacted upon fat cells, and a Geiger count was read to determine the amount of the glucose participating in the fat synthesis and incorporated into the fat cells as a neutral fat, whereby gynosaponins were tested for their effects on the power of the glucose for fat synthesis.
More specifically, the fat cells obtained by treating with collagenase were suspended in KRB, and 0.35 ml. of the resulting solution containing 100 mg of fat cells was placed into a test tube with 0.1 ml. of each saponin solution containing 20 μg of saponin, 0.5 ml. of a 5% albumin solution in KRB, containing 10 mM glucose and having a pH value of 7.4, and 0.05 ml. of a ^14 C-glucose solution which was a 0.5 μCi KRP solution having a pH value of 7.4 and containing 10 mM glucose. They were heated at 37° C. for half an hour, and after 5 ml. of Dole's extract were added and the whole was shaked for five minutes, 3 ml. of heptane and 2 ml. of water were added, and the whole was shaked for five minutes. 3 ml. of a heptane layer were separated, and after an alkaline ethanol solution (0.5 N sodium hydroxide solution, 50 % ethanol solution) was added in the amount of 3 ml., the whole was shaked for five minutes. Then, 1 ml. of an ethanol layer was separated, and 10 ml. of a toluene scintillation solution were added thereinto, followed by determination according to the method of Skipski et al. [Biochem. Biophys. Acta, 106, 386 (1965)].

[4] = ACTH 1 μg/ml + saponin 20 μg/ml

In the case of “20S,26-Hydroxyprotopanaxadiol-3-O-{[β-D-glucopyranosyl (1→2)-α-L-rhamnopyranosyl (1→6)]-β-D-glucopyranoside}-20-O-[α-L-rhamnopyranosyl (1→6)-β-D-glucopyranoside] [gynosaponin O]”, the “Free fatty acid formed by decomposition of fat” value (“Free fatty acid formed” below) (fat cells [1]; [4]) is reported as 5.6 μ Eq/g, the Rate of inhibition (fat cells [1]; [4]) is reported as 33% and the “Free fatty acid formed” value (fat cells [2]) is reported as 13.9 μ Eq/g. The Rate of inhibition (fat cells [2]) was 1%, the “Power for synthesis of neutral fat from glucose” value (from here on “Power for synthesis”) (fat cells [3]) was 8,263 cpm/g and the Rate of promotion (fat cells [3]) was 38%.

In the case of “20S,26-Hydroxyprotopanaxadiol-3-O-{[β-D-glucopyranosyl (1→2)-α-L-rhamnopyranosyl (1→6)]-β-D-glucopyranoside}-20-O-[β-D-glucopyranosyl (1→6)-β-D-glucopyranoside] [gynosaponin T]”, the “Free fatty acid formed” value (fat cells [1]; [4]) is reported as 6.3 μ Eq/g, the Rate of inhibition (fat cells [1]; [4]) is reported as 25% and the “Free fatty acid formed” value (fat cells [2]) is reported as 13.1 μ Eq/g. For the same compound, the Rate of inhibition (fat cells [2]) was 7%, the “Power for synthesis” value (fat cells [3]) was 11,150 cpm/g and the Rate of promotion (fat cells [3]) was 52%.

With “20S-Protopanaxadiol-3-O-{[β-D-glucopyranosyl (1→2)-α-L-rhamnopyranosyl (1→6)]-β-D-glucopyranoside} [progynosapogenin A--AH]” the “Free fatty acid formed” value (fat cells [1]; [4]) was 6.3 μ Eq/g, the Rate of inhibition (fat cells [1]; [4]) was 25% and the “Free fatty acid formed” value (fat cells [2]) was 12.4 μ Eq/g. The Rate of inhibition (fat cells [2]) was 12%, the “Power for synthesis” value (fat cells [3]) was 10,550 cpm/g and the Rate of promotion (fat cells [3]) was 49%.

With “20S-Protopanaxadiol-3-O-{[β-D-glucopyranosyl (1→2)-α-L-rhamnopyranosyl (1→6)]-β-D-glucopyranoside}-20-O-[α-L-rhamnopyranosyl (1→6)-β-D-glucopyranoside] [gynosaponin B]” the “Free fatty acid formed” value (fat cells [1]; [4]) was 6.9 μ Eq/g, the Rate of inhibition (fat cells [1]; [4]) was 18% and the “Free fatty acid formed” value (fat cells [2]) was 9.1 μ Eq/g. For the same compound, the Rate of inhibition (fat cells [2]) was 35%, the “Power for synthesis” value (fat cells [3]) was 12,308 cpm/g and the Rate of promotion (fat cells [3]) was 57%.

“20S-Protopanaxadiol-3-O-{[β-D-glucopyranosyl (1→2)-α-L-rhamnopyranosyl (1→6)]-β-D-glucopyranoside}-20-O-[β-D-glucopyranosyl (1→6)-β-D-glucopyranoside] [gynosaponin A]” was tested, and the “Free fatty acid formed” value (fat cells [1]; [4]) was 6.1 μ Eq/g, the Rate of inhibition (fat cells [1]; [4]) was 27% and the “Free fatty acid formed” value (fat cells [2]) was 13.4 μ Eq/g. For the same compound, the Rate of inhibition (fat cells [2]) was 5%, the “Power for synthesis” value (fat cells [3]) was 8,013 cpm/g and the Rate of promotion (fat cells [3]) was 37%.

With “20S-Protopanaxadiol-3-O-{[β-D-glucopyranosyl (1→2)-α-L-rhamnopyranosyl (1→6)]-β-D-glucopyranoside}-20-O-β-D-glucopyranoside [gynosaponin F]” the “Free fatty acid formed” value (fat cells [1]; [4]) was 6.3 μ Eq/g, the Rate of inhibition (fat cells [1]; [4]) was 25% and the “Free fatty acid formed” value (fat cells [2]) was 13.4 μ Eq/g. For the same compound, the Rate of inhibition (fat cells [2]) was 5%, the “Power for synthesis” value (fat cells [3]) was 11,620 cpm/g and the Rate of promotion (fat cells [3]) was 54%.

In the case of `CC(C)=CCC[C@](C)(O[C@@H]1O[C@H](CO[C@@H]2O[C@@H](C)[C@H](O)[C@@H](O)[C@H]2O)[C@@H](O)[C@H](O)[C@H]1O)[C@H]1CC[C@]2(C)[C@@H]1[C@H](O)C[C@@H]1[C@@]3(C)CC[C@H](O[C@@H]4O[C@H](CO)[C@@H](O)[C@H](O)[C@H]4O[C@@H]4O[C@H](CO)[C@@H](O)[C@H](O)[C@H]4O)C(C)(C)[C@@H]3CC[C@]12C` [gynosaponin E, 20S-Protopanaxadiol-3-O-[β-D-glucopyranosyl (1→2)-β-D-glucopyranoside]-20-O-[α-L-rhamnopyranosyl (1→6)-β-D-glucopyranoside]], the “Free fatty acid formed” value (fat cells [1]; [4]) is reported as 5.9 μ Eq/g, the inhibition at 20 µg/mL (fat cells [1]; [4]) is reported as 30% and the inhibition at 20 µg/mL (fat cells [2]) is reported as 33%. The “Free fatty acid formed” value (fat cells [2]) was 9.4 μ Eq/g, the “Power for synthesis” value (fat cells [3]) was 10,248 cpm/g and the activation at 20 µg/mL (fat cells [3]) was 48%.

For `CC(C)=CCC[C@](C)(O[C@@H]1O[C@H](CO[C@@H]2O[C@@H](C)[C@H](O)[C@@H](O)[C@H]2O)[C@@H](O)[C@H](O)[C@H]1O)[C@H]1CC[C@]2(C)[C@@H]1[C@H](O)C[C@@H]1[C@@]3(C)CC[C@H](O[C@@H]4O[C@H](CO[C@@H]5O[C@@H](C)[C@H](O)[C@@H](O)[C@H]5O)[C@@H](O)[C@H](O)[C@H]4O)C(C)(C)[C@@H]3CC[C@]12C` [gynosaponin G, 20S-Protopanaxadiol-3,20-bis-O-[α-L-rhamnopyranosyl (1→6)-β-D-glucopyranoside]], the “Free fatty acid formed” value (fat cells [1]; [4]) was 5.8 μ Eq/g, the inhibition at 20 µg/mL (fat cells [1]; [4]) was 31% and the inhibition at 20 µg/mL (fat cells [2]) was 2%. For the same compound, the “Free fatty acid formed” value (fat cells [2]) was 13.8 μ Eq/g, the “Power for synthesis” value (fat cells [3]) was 8,925 cpm/g and the activation at 20 µg/mL (fat cells [3]) was 42%.

`CC(C)=CCC[C@](C)(O[C@@H]1O[C@H](CO[C@@H]2OC[C@@H](O)[C@H](O)[C@H]2O)[C@@H](O)[C@H](O)[C@H]1O)[C@H]1CC[C@]2(C)[C@@H]1[C@H](O)C[C@@H]1[C@@]3(C)CC[C@H](O[C@@H]4O[C@H](CO)[C@@H](O)[C@H](O)[C@H]4O)C(C)(C)[C@@H]3CC[C@]12C` [gynosaponin I, 20S-Protopanaxadiol-3-O-β-D-glucopyranoside-20-O-[β-D-xylopyranosyl (1→6)-β-D-glucopyranoside]] was tested, and the “Free fatty acid formed” value (fat cells [1]; [4]) was 6.6 μ Eq/g, the inhibition at 20 µg/mL (fat cells [1]; [4]) was 21% and the inhibition at 20 µg/mL (fat cells [2]) was 10%. For the same compound, the “Free fatty acid formed” value (fat cells [2]) was 12.7 μ Eq/g, the “Power for synthesis” value (fat cells [3]) was 10,564 cpm/g and the activation at 20 µg/mL (fat cells [3]) was 49%.

For “ACTH: ACTH, used at 1 μg/ml to decompose fat in fat cells (SYSMEHFRWGKPVGKKRRPVKVYPNGAEDESAEAFPLEF; Corticotropin; UniProt P01189 138-176, looked up) [reference compound]”, the “Free fatty acid formed” value (fat cells [1]; ACTH alone, 1 μg/ml) was 8.4 μ Eq/g.
